From patent US12594255B2, “Lipids with odd number of carbon atoms and their use as pharmaceutical composition or nutritional supplement” (SunRegen Healthcare AG, priority 2016, dated 2026)
Several values for one entry are separate records, joined by “and”; a condition that tells them apart may be missing. Identical values can stand only once. Like-named read-outs stand apart in the source and are kept apart here.

Columns and labels:
[1] = tested on: mouse primary cortical neurons; experiment: Axonal growth (MAP2 immunolabelling, axonal length); format: cell-based; conditions: vehicle control 165.96±90.18 μm
Protocol: Mouse primary cortical neurons were pre-incubated for 48 h with vehicle, 60 nM sAPPα (used as positive control) or different concentrations of Compound C. Then, cortical neurons were treated for 24 h with vehicle. Data are represented as % of vehicle control (Mean±SD).
Cortical neurons from embryonic day 16-17 are prepared from C57Bl6/J mouse fetuses, as described in Example I-1. After 96-h incubation, axonal length is recorded. Briefly, cells were washed with ice-cold PBS and fixed with cold methanol. Following fixation, cells are immunolabelled using a specific antibody detecting total MAP2 protein. Antibodies to MAP2 are excellent markers on neuronal cells, their axons and neuronal dendrites. For quantification of axonal length, six independent images of labelled cells are captured using an inverted microscope. Pictures of cells are analyzed using Neuron-J software and axonal length is recorded manually. A minimum of 100 independent neurons are treated. The data are expressed as mean axonal length (expressed in μm) (Mean±SD). Statistical differences between vehicle-treated cells and cells treated with compounds are determined using a t-test.

[2] = tested on: human iPSC-derived neurons challenged with Aβ1-42 oligomers (AβO); experiment: AβO-induced neuronal death in human iPSC-derived neurons, NSE ELISA assay; format: cell-based; conditions: 10000 nM; for viability at 10 µM: Homo sapiens, Neuron, read-out: cell viability
Protocol: iPSCs were treated at 0 h (T0) with vehicle or 1 μM AβO. Different concentrations of Compound C or 0.1 μM HNG (used as positive control) were added concomitantly to AβO at 0 h (T0), 3 h (T3) or 6 h (T6) after AβO. Then, were incubated for 24 h and cell viability was determined using the NSE ELISA assay (n=6 determinations per condition, 1 independent experiment), Data are represented as % of vehicle control (Mean±SD). […]
To determine whether compound C might rescue neuronal death in human iPSC-derived neurons challenged with Aβ1-42 oligomers (AβO). In this cellular model, AβO induce a dramatic neuronal death that could be monitored by the level of neuronal specific enolase (NSE) using a specific ELISA assay. Compound C will be added at different time points (concomitantly and after AMBO) with the aim to identify rescuing effects.
Cells (HIP-Neuronal progenitors, GlobalStem, Cat #GSC-4312, Lot #20010260) are plated in 96-well plates at a density of 60.000 cells per well and culture. Before experiments, cells are matured for five weeks and kept at 37° C. in a humidified 5% CO2 atmosphere.
Cells are incubated with vehicle or 1 μM AβO in the absence or presence of different concentrations (i.e. 10, 100, 1000 and 10000 nM) of Compound C added concomitantly to AβO (T0), 3 h after AβO (T3), or 6 h after AβO (T6). Cells are incubated for 24 h in a final volume of 100 μL per well. For positive control, cells are treated similarly in the presence of 0.1 μM HNG (i.e. S14G variant of humanin peptide). In addition, neuronal loss is monitored using the detection of neuronal specific enolase (NSE) by ELISA assay according to supplier's recommendations (CloneCloud, Cat #SEA537Hu). A total of three data points per experimental condition will be generated here. […]

[3] = tested on: age-induced protein aggregates in Saccharomyces cerevisiae; experiment: Age-induced protein aggregates (Hsp104-GFP foci) in old yeast cells; format: cell-based; conditions: for proportion of cells with a Hsp104-GFP focus: vehicle only 58.7±10.6%
Protocol: FIG. 9a: Representative images of a young cell, or old cells untreated or treated with Herb B (10 μg/ml) or Compound C (30 μM). Upper panels are maximum projection of z-series stacks of cells stained with fluorescent brightener 28 and imaged in the DAPI channel to reveal bud scars. Lower panel are single focal planes images of the same cells that express Hsp104-GFP and imaged in the GFP channel. Arrow point at an Hsp104-GFP focus.
FIG. 9c: Percentage of cells with an Hsp104-GFP focus. Cells were imaged with the same illumination conditions. All old cells imaged were included (between 75 and 94 cells). All focal planes were examined Mean±SD. P values are adjusted p values from an ANOVA comparing to vehicle only.
FIG. 9d: Average fluorescence intensity of Hsp104-GFP in the cell as a proxy for Hsp104-GFP concentration. Mean±SD. P values are adjusted p values obtained from ANOVA comparing to vehicle only
To test an effect on the formation of age-induced Hsp104-GFP foci, old cells were obtained and cultivated in the presence of Compound C (1 μM, 10 μM and 30 μM). Herb B (10 μg/ml), ethanol (0.3%, vehicle only) or in the absence of any treatment. Untreated young cells were obtained through a simple exponential growth.
Age was determined by staining bud scars with fluorescent brightener 28. […] (FIG. 9b)

[4] = Solubility of compound C in stock solutions; format: physicochemical
[5] = tested on: patients suffered from incurable diseases; experiment: Case reports of patients eating functional food containing SBC003; format: in vivo, human
Source text: Compound C (tripentadecanoin) is a natural lipid which can be found in specific herbs, but can also be found in human/animal milk. The patients described in examples II suffered from incurable diseases without any efficient treatment have voluntarily requested the functional food which containing SBC003.

SMILES: CCCCCCCCCCCCCCC(=O)OCC(COC(=O)CCCCCCCCCCCCCC)OC(=O)CCCCCCCCCCCCCC [Compound C, tripentadecanoin]
- neuronal axon outgrowth (mean axonal length) ([1]; 1000 nM): 199.93±101.17 μm
- neuronal axon outgrowth (mean axonal length) ([1]; 10000 nM): 304.27±149.60 μm
- % of neuroprotection and anti-apoptotic effects ([2]; T0): 53.7%
- % of neuroprotection and anti-apoptotic effects ([2]; T3): 90.8%
- % of neuroprotection and anti-apoptotic effects ([2]; T6): 78.9%
- viability at 10 µM ([2]; T0): 76.7 ± 2.7%
- viability at 10 µM ([2]; T3): 94.2 ± 7.1%
- viability at 10 µM ([2]; T6): 88.8 ± 1.3%
- proportion of cells with a Hsp104-GFP focus ([3]; 1 μM, not statistically significant): 46.2±4.8%
- proportion of cells with a Hsp104-GFP focus ([3]; 10 μM): 37.5±6.0%
- proportion of cells with a Hsp104-GFP focus ([3]; 30 μM): 34.3±13.7%
- intensity of Hsp104-GFP (increase in old vs young cells) ([3]; compound C 1, 10, 30 μM, herb B 10 μg/ml): reduced the extent of this increase
- solubility in stock solutions [4]: not fully soluble
- serum creatinine, average level ([5]; female, chronic kidney failure, on treatment, before mean 9.21 mg/dl): 8.88 mg/dL
- serum creatinine ([5]; female, chronic kidney failure, single values on treatment, before mean 9.21 mg/dl, listed as SBC003): 8.88 mg/dL and 8.97 mg/dL and 8.55 mg/dL and 9.12 mg/dL
- time breathing by themself ([5]; person, ALS, ventilator, functional food containing SBC003 about 10 mg/day, about one month, before at the most 30 mins/day): about 55 mins/day
- Parkinson's symptoms ([5]; person, Parkinson's disease, functional food containing SBC003 about 10 mg/day, after about one week): abnormal shaking in feet improved
- symptoms of asthma ([5]; person, asthma about 20 years, about 5 mg/time for about few times): greatly improved
- asthma symptoms ([5]; person, asthma about 29 years, functional food containing SBC003 about 5 mg for one or two time): symptoms greatly improved
- facial expression / communication ([5]; person, cerebellar atrophy, functional food containing SBC003 about 10 mg/day, after about one month): started to smile
- urine volume once per day ([5]; person, chronic kidney failure, haemodialysis, no urine before, about 10 to 25 mg/day for about 1 month, after about 2 months): 10 mL
- urine total volume per day ([5]; person, chronic kidney failure, after increasing to 50-100 mg/day for about 2-3 months): about 50 ml per day
- blood glucose level ([5]; person, chronic kidney failure, on treatment, prior to the treatment 130-180 mg/dl): 70 to 105 mg/dL
- vision (patient-reported) ([5]; person, optic atrophy, blind, functional food containing SBC003 about 7 mg/day for 7 days, after about one month): brighter and better vision
- sitting time ([5]; person, spinal fractures, about 20 mg/day, about 10 days, before only 1 hour/time): up to 2 hours
- remaining lumbar pains ([5]; person, spinal fractures, functional food containing SBC003 about 20 mg/day, about 10 days): 40 % of the pains before taking SBC003
